The test system of one data set is Mast cell. As to the kind of experiment: Induction of histamine release in rat peritoneal mast cells at 10 uM. The format is functional, cell-based.
Data set [1] can be described thus: Skin irritant activity in mouse ear at 10 ug after 24 hrs. Type of data set: ADME, tissue-based. The note with it: in vivo, topical_or_ocular.

Drawing on ChEMBL document CHEMBL1158925, “New proazulene guaianolides from Thapsia villosa” (J Nat Prod, 1990), this text covers Activity for 5 compounds.

Molecules are shown by their SMILES. Calls of active or inactive are those of the source. The calls are words filed in the database; no cut-off is given here.

As for `CC(=O)O[C@@H]1C=C(C)[C@H]2[C@@H]3OC(=O)[C@@](C)(OC(C)=O)[C@@H]3[C@@H](OC(=O)C=C(C)C)C[C@](C)(OC(C)=O)[C@H]21`, the outcome in the data set with Mast cell was inactive. Also, the Activity entry in data set [1] is reported as “Non-toxic”.

For the compound `CC(=O)O[C@@]1(C)C[C@H](OC(=O)C=C(C)C)[C@@H]2[C@@H](OC(=O)[C@@]2(C)OC(C)=O)[C@@H]2C(C)=C[C@@H](O)[C@@H]21`, the outcome in the data set on Mast cell was inactive. Further, the Activity entry in data set [1] is “Non-toxic”.

On to `C/C=C(/C)C(=O)O[C@H]1C(C)=C2[C@H]([C@@H]1OC(=O)CCCCCCC)[C@@](C)(OC(C)=O)C[C@H](OC(=O)CCC)[C@@]1(O)[C@H]2OC(=O)[C@@]1(C)O` [THAPSIGARGIN], for which the result with Mast cell was inactive. In addition, the Activity entry in data set [1] is “Non-toxic”.

Turning to `CCC(C)C(=O)O[C@H]1C[C@](C)(OC(C)=O)[C@@H]2[C@@H](C(C)=C[C@H]2O)[C@@H]2OC(=O)[C@@](C)(OC(C)=O)[C@@H]21` (stereo not given in full), the outcome in the data set on Mast cell was inactive. In addition, the Activity result in data set [1] is “Non-toxic”.

With `CCC(C)C(=O)O[C@H]1C[C@](C)(OC(C)=O)[C@@H]2[C@@H](C(C)=C[C@H]2OC(C)=O)[C@@H]2OC(=O)[C@@](C)(OC(C)=O)[C@@H]21` (stereo not given in full), the outcome in the data set with Mast cell was inactive. In addition, the Activity result in data set [1] is on record as “Non-toxic”.
